Laboratory results: patent publication US11351538B2, “Fluidic device and method of assembling same” (Northeastern University, priority 2017, dated 2022)

Test system: primary human intestinal epithelial monolayers
Test: Paracellular permeability measurement across primary organoid derived monolayers (bi-layer chips vs static inserts)
Type: in vitro ADME
Conditions: apical to basal, 5 days, p-value=0.0029
Method: The apparent permeability coefficient for a 4.4 kDa, tetramethylrhodamine (TRITC) labeled dextran (cat no. T1037, Sigma-Aldrich) was determined by measuring transport across the Caco-2 cell monolayer. TEER values of cell monolayers were measured prior to the permeability assay and monolayers with TEER values below 165Ω×cm^2 were not used. For control Transwell cultures, 300 μL of 500 μM dextran in cell culture medium was applied to the apical compartment. 100 μL was immediately sampled from the apical compartment, transferred to a black, polystyrene, 96 well plate and stored in a 4° C. fridge. Transwells were maintained in a humidified, 37° C.+5% CO2 incubator. 100 μL aliquots were sampled from the basolateral compartment every 30 minutes over 3 hours and 100 μL of fresh medium preheated to 37° C. was added to replace the aliquoted volume. The fluorescence intensity of the collected basolateral samples was measured at 557 nm and 576 nm […] wavelengths, respectively. The actual dextran concentration was determined via a calibration curve. The apparent permeability coefficient was calculated as specified. […] The apparent permeability coefficient for Lucifer Yellow (cat no. L0259, Sigma-Aldrich) across primary organoid derived monolayers on static inserts and bi-layer chips was determined as described above. […]

Substance: Lucifer Yellow
- apparent permeability, change between 5-day static and fluidic device models: significant increase
